For orientation: Ki means a measure of affinity in units of concentration, obtained from inhibition or displacement. Higher therefore signals weaker binding.

Among the data in US20250092022A1, “MUSCARINIC RECEPTOR 4 ANTAGONISTS AND METHODS OF USE” (Neurocrine Biosciences, Inc., priority 2021, published 2025) are Ki values, retold here.

For this assay, the target named is human M4 receptor (Homo sapiens (Human), UniProt P08173). Put plainly: Binding assay: inhibition of radioligand (tritiated N-methylscopolamine) binding to membranes from CHO cells expressing human M4 receptor. Conditions: CHO cell membranes, 1.5 nM tritiated N-methylscopolamine. The method, then: Binding affinity (Ki) for the compounds was measured by inhibition of radioligand binding to membranes from CHO cells expressing human M4 receptor. Membranes were prepared by nitrogen cavitation and differential centrifugation as previously described (Hoare et al., Mol. Pharmacol. 2003 March; 63(3): 751-65). The radioligand employed was tritiated N-methylscopolamine, used at a concentration of 1.5 nM. A dose-response of twelve concentrations of compound was used, ranging from […]. The assay buffer was 50 mM HEPES, 100 mM NaCl, 5 mM MgCl2, 1 mM ethylenediaminetetraacetic acid, pH-adjusted to pH 7.4. Membranes, radioligand and compound were incubated together for 90 minutes at 37° C., in a total volume of 150 μL in a 96-well plate. Receptor-bound radioligand was then collected by harvesting the assay over glass fiber filters pretreated with polyethylenimine to trap the cell membranes, using rapid vacuum filtration. Harvesting and radioactivity counting was conducted as previously described (see, e.g., Hoare et al., Mol. Pharmacol. 2003 63(3):751-65); Erratum at Mol. Pharmacol. 2005 July; 68(1): 260).
Sequence of human M4 receptor (P08173 whole entry): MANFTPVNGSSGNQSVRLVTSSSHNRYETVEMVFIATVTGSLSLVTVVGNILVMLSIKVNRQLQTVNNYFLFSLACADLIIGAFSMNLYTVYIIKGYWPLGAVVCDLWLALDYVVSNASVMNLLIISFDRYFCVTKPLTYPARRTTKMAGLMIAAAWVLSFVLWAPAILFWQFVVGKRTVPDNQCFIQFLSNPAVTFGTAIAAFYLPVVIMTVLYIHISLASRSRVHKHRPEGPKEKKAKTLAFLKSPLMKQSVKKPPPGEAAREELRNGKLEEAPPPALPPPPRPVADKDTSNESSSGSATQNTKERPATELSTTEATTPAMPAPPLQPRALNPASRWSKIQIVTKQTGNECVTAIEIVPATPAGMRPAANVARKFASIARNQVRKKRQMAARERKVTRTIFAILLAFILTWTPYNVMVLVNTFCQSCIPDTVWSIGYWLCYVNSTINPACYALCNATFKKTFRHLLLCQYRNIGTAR

With `C[C@@H]1CN(c2ncc(S(C)(=O)=O)cn2)C[C@H](C)N1C(=O)OC1CC2(C1)CN(Cc1ccccc1)C2` [Compound 33, 2-benzyl-2-azaspiro [3.3]heptan-6-yl (2R,6S)-4-(5-methane-sulfonylpyrimidin-2-yl)-2,6-dimethylpiperazine-1-carboxylate], the Ki was under 100 nM. `C[C@@H]1CN(c2ncc([S+](C)[O-])cn2)C[C@H](C)N1C(=O)OC1CC2(C1)CN(Cc1ccccc1)C2` (stereo partly drawn) [Compound 23, 2-benzyl-2-azaspiro [3.3]heptan-6-yl (2R,6S)-4-(5-methane-sulfinylpyrimidin-2-yl)-2,6-dimethylpiperazine-1-carboxylate] registered a Ki of 100 to 500 nM. Regarding `C[C@@H]1CN(c2ncc(OC[C@@H](C)O)cn2)C[C@H](C)N1C(=O)OC1CC2(C1)CN(Cc1ccccc1)C2` [Compound 56, 2-benzyl-2-azaspiro [3.3]heptan-6-yl (2R,6S)-4-{5-[(2R)-2-hydroxypropoxy]pyrimidin-2-yl}-2,6-dimethyl-piperazine-1-carboxylate], the Ki is 100 to 500 nM. Compound `C[C@@H]1CN(c2ncc(S(=O)(=O)C3CC3)cn2)CCN1C(=O)OC1CC2(C1)CN(Cc1ccccc1)C2` [Compound 22, 2-benzyl-2-azaspiro [3.3]heptan-6-yl (2R)-4-[5-(cyclopropanesulfonyl)pyrimidin-2-yl]-2-methylpiperazine-1-carboxylate] had an inhibitory constant (Ki) of under 100 nM. `C[C@@H]1CN(c2ncc(S(C)(=O)=O)cn2)C[C@H](C)N1C(=O)OC1CC2(C1)CN(Cc1ccc(F)cc1)C2` [Compound 38, 2-[(4-fluorophenyl)methyl]-2-azaspiro[3.3] heptan-6-yl (2R,6S)-4-(5-methanesulfonylpyrimidin-2-yl)-2,6-dimethyl-piperazine-1-carboxylate] registered a Ki of under 100 nM. On to `C[C@@H]1CN(c2ncc(O)cn2)C[C@H](C)N1C(=O)OC1CC2(C1)CN(Cc1ccccc1)C2` [Compound 51, 2-benzyl-2-azaspiro [3.3]heptan-6-yl (2R,6S)-4-(5-hydroxypyrimidin-2-yl)-2,6-dimethyl-piperazine-1-carboxylate], for which the Ki is at least 500 nM. `C[C@@H]1CN(c2ncc(N3CCCC3=O)cn2)C[C@H](C)N1C(=O)OC1CC2(C1)CN(Cc1ccccc1)C2` [Compound 30, 2-benzyl-2-azaspiro [3.3]heptan-6-yl (2R,6S)-2,6-dimethyl-4-[5-(2-oxopyrrolidin-1-yl)pyrimidin-2-yl]piperazine-1-carboxylate] registered an inhibition constant (Ki) of at least 500 nM. Compound `C[C@@H]1CN(c2ncc(S(=O)(=O)C3CC3)cn2)[C@@H](C)CN1C(=O)OC1CC2(C1)CN(Cc1ccccc1)C2` [Compound 20, 2-benzyl-2-azaspiro [3.3]heptan-6-yl (2R,5S)-4-[5-(cyclo-propanesulfonyl)pyrimidin-2-yl]-2,5-dimethyl-piperazine-1-carboxylate] had an inhibition constant (Ki) of under 100 nM. As for `C[C@@H]1CN(c2ncc3c(n2)CS(=O)(=O)C3)C[C@H](C)N1C(=O)OC1CC2(C1)CN(Cc1ccccc1)C2` [Compound 43, 2-benzyl-2-azaspiro [3.3]heptan-6-yl (2R,6S)-4-dioxo-5H,7H-6λ^6-thieno [3,4-d]pyrimidin-2-yl}-2,6-dimethylpiperazine-1-carboxylate], the inhibitory constant (Ki) was under 100 nM. The same measure for `CC(C)S(=O)(=O)c1cnc(N2C[C@@H](C)N(C(=O)OC3CC4(C3)CN(Cc3ccccc3)C4)[C@@H](C)C2)nc1` [Compound 42, 2-benzyl-2-azaspiro [3.3]heptan-6-yl (2R,6S)-2,6-dimethyl-4-[5-(propane-2-sulfonyl)pyrimidin-2-yl]piperazine-1-carboxylate]: 100 to 500 nM; for `CCS(=O)(=O)c1cnc(N2CCN(C(=O)NC3CC4(C3)CN(Cc3ccccc3)C4)[C@H](C)C2)nc1` [Compound 7, (2R)-N-{2-benzyl-2-azaspiro[3.3]heptan-6-yl}-4-[5-(ethanesulfonyl)pyrimidin-2-yl]-2-methylpiperazine-1-carboxamide]: 100 to 500 nM; for `COc1cnc(N2C[C@@H](C)N(C(=O)OC3CC4(C3)CN(Cc3ccccc3)C4)[C@@H](C)C2)nc1` [Compound 45, 2-benzyl-2-azaspiro [3.3]heptan-2-yl (2R,6S)-4-(5-methoxypyrimidin-2-yl)-2,6-dimethyl-piperazine-1-carboxylate]: at least 500 nM.

`C[C@@H]1CN(c2ncc(S(=O)(=O)C3CC3)cn2)C[C@H](C)N1C(=O)NC1CC2(C1)CN(Cc1ccccc1)C2` [Compound 3, (2R,6S)-N-{2-benzyl-2-azaspiro[3.3]heptan-6-yl}-4-[5-(cyclopropanesulfonyl)pyrimidin-2-yl]-2,6-dimethylpiperazine-1-carboxamide] came in with a Ki of under 100 nM. Consider `C[C@@H]1CN(c2ncc(OC3CC3)cn2)C[C@H](C)N1C(=O)OC1CC2(C1)CN(Cc1ccccc1)C2` [Compound 46, 2-benzyl-2-azaspiro [3.3]heptan-6-yl (2R,6S)-4-(5-cyclopropoxy-pyrimidin-2-yl)-2,6-dimethylpiperazine-1-carboxylate], for which the Ki was at least 500 nM. For the compound `C[C@@H]1CN(c2ncc(S(C)(=O)=O)cn2)CCN1C(=O)OC1CC2(C1)CN(Cc1ccccc1)C2` [Compound 13, 2-benzyl-2-azaspiro [3.3]heptan-6-yl (2R)-4-(5-methanesulfonyl-pyrimidin-2-yl)-2-methylpiperazine-1-carboxylate], the inhibition constant (Ki) lay within 100 to 500 nM. Consider `CCS(=O)(=O)c1cnc(N2C[C@@H](C)N(C(=O)OC3CC4(C3)CN(Cc3ccccc3)C4)[C@H](C)C2)nc1` [Compound 18, 2-benzyl-2-azaspiro [3.3]heptan-6-yl (2R,6R)-4-[5-(ethane-sulfonyl)pyrimidin-2-yl]-2,6-dimethylpiperazine-1-carboxylate], for which the inhibition constant Ki was 100 to 500 nM. On to `CC[C@H](O)COc1cnc(N2C[C@@H](C)N(C(=O)OC3CC4(C3)CN(Cc3ccccc3)C4)[C@@H](C)C2)nc1` [Compound 57, 2-benzyl-2-azaspiro [3.3]heptan-6-yl (2R,6S)-4-{5-[(2S)-2-hydroxybutoxy]pyrimidin-2-yl}-2,6-dimethyl-piperazine-1-carboxylate], for which the inhibitory constant (Ki) fell in the range of 100 to 500 nM. In turn, `CCS(=O)(=O)c1cnc(N2C[C@@H](C)N(C(=O)OC3CC4(C3)CN(Cc3ccccc3)C4)[C@@H](C)C2)nc1` [Compound 32, 2-benzyl-2-azaspiro [3.3]heptan-6-yl (2R,6S)-4-[5-(ethane-sulfonyl)pyrimidin-2-yl]-2,6-dimethylpiperazine-1-carboxylate] displayed a Ki of under 100 nM.

With `C[C@@H]1CN(c2ncc3c(n2)CCS3(=O)=O)C[C@H](C)N1C(=O)OC1CC2(C1)CN(Cc1ccccc1)C2` [Compound 39, 2-benzyl-2-azaspiro [3.3]heptan-6-yl (2R,6S)-4-{5,5-dioxo-6H, 7H-5λ^6-thieno[3,2-d]pyrimidin-2-yl}-2,6-dimethylpiperazine-1-carboxylate], the Ki fell in the range of 100 to 500 nM. As to `C[C@@H]1CN(c2ncc(N3CCC3=O)cn2)C[C@H](C)N1C(=O)OC1CC2(C1)CN(Cc1ccccc1)C2` [Compound 29, 2-benzyl-2-azaspiro [3.3]heptan-6-yl (2R,6S)-2,6-dimethyl-4-[5-(2-oxoazetidin-1-yl)pyrimidin-2-yl] piperazine-1-carboxylate], the inhibition constant (Ki) was at least 500 nM. Consider `C[C@@H]1CN(c2ncc(S(C)(=O)=O)cn2)C[C@H](C)N1C(=O)OC1CC2(C1)CN(Cc1ccc(Cl)cc1)C2` [Compound 36, 2-[(4-chlorophenyl)methyl]-2-azaspiro[3.3] heptan-6-yl (2R,6S)-4-(5-methanesulfonylpyrimidin-2-yl)-2,6-dimethyl-piperazine-1-carboxylate], for which the Ki was under 100 nM. The same measure for `C[C@@H]1CN(c2ncc(OCC(O)CF)cn2)C[C@H](C)N1C(=O)OC1CC2(C1)CN(Cc1ccccc1)C2` (stereo partly drawn) [Compound 53, 2-benzyl-2-azaspiro [3.3]heptan-6-yl (2R,6S)-4-[5-(3-fluoro-2-hydroxypropoxy)pyrimidin-2-yl]-2,6-dimethyl-piperazine-1-carboxylate]: at least 500 nM; for `C[C@@H]1CN(c2ncc(S(=O)(=O)C3CC3)cn2)CCN1C(=O)NC1CC2(C1)CN(Cc1ccccc1)C2` [Compound 8, (2R)-N-{2-benzyl-2-azaspiro[3.3]heptan-6-yl}-4-[5-(cyclopropanesulfonyl)pyrimidin-2-yl]-2-methylpiperazine-1-carboxamide]: 100 to 500 nM; for `C[C@@H]1CN(c2ncc(S(C)(=O)=O)cn2)[C@@H](C)CN1C(=O)OC1CC2(C1)CN(Cc1ccc(Cl)cc1)C2` [Compound 37, 2-[(4-chlorophenyl)methyl]-2-azaspiro[3.3] heptan-6-yl (2R,5S)-4-(5-methanesulfonylpyrimidin-2-yl)-2,5-dimethyl-piperazine-1-carboxylate]: under 100 nM. The same measure for `Cc1nc(N2C[C@@H](C)N(C(=O)OC3CC4(C3)CN(Cc3ccccc3)C4)C[C@@H]2C)ncc1S(C)(=O)=O` [Compound 25, 2-benzyl-2-azaspiro [3.3]heptan-6-yl (2R,5S)-4-(5-methane-sulfonyl-4-methyl-pyrimidin-2-yl)-2,5-dimethylpiperazine-1-carboxylate]: under 100 nM; for `COc1ccccc1CN1CC2(CC(OC(=O)N3[C@H](C)CN(c4ncc(S(C)(=O)=O)cn4)C[C@@H]3C)C2)C1` [Compound 62, 2-[(2-methoxyphenyl)methyl]-2-azaspiro[3.3] heptan-6-yl (2R,6S)-4-(5-methanesulfonylpyrimidin-2-yl)-2,6-dimethyl-piperazine-1-carboxylate]: at least 500 nM.
